This is an account of results in patent US7078499B2, “Nucleotide analogues comprising a reporter moiety and a polymerase enzyme blocking moiety” (GE Healthcare UK Limited, priority 2000, dated 2006).

Common to all, as to type: biochemical
Holding throughout (design): key to result of incorporation (termination / further chain extension): T: Incorporation results in termination; E: Incorporation permits further chain extension; T/E: Predominant product is primer extended by one base, but evidence of some further extension also observed

For one experiment, the system named is Thermosequenase. The experiment is described as follows: Thermostable DNA polymerase primer extension, TS. Particulars: DNA template, 45° C. for 20–40 minutes; for primer extended by at least one base within assay time (grade): TTP replaced entirely by test compound. As to the method:
(§1) DNA polymerase assays were performed using Sequence 1 as primer and Sequence 2 as template. • Sequence 1 5′[Cy3]TAACTCATTAACAGGATC 3′ • Sequence 2 5′AT TCGCGGTATTCTGGTATGAAGCTTTTAGATCCTGTTAATGAGTTA GTA3′
(§2) The template (Sequence 2) was designed such that the base (underlined) immediately adjacent to the 3′ end of the hybridised primer is complementary to the nucleotide test compound. Nucleotide test compounds were compounds (6) (4′-C-(glycylaminomethyl)thymidine triphosphate), (8) (4′-C-(N-trifluoroacetyaminomethyl)thymidine triphosphate) and (9) (4′-C-(aminomethyl)thymidine triphosphate) as described above.
(§3) Primer extension reactions were performed using the above primers in the presence of 40 to 80 μM of nucleotide triphosphates. Positive control reactions contained all four native nucleotide triphosphates. For the other reactions the TTP was replaced with either a 2:1 ratio of […] for the terminator control, or entirely by the test compound The enzymes were used at a final concentration of 0.175 units/μl and a magnesium ion concentration of 2.5 mM in buffers supplied by the manufacturer. The primer and template concentrations were 0.5 pmol/μl and 2 pmol/μl respectively.
(§4) Extension reactions with thermophilic enzymes were performed by initially denaturing the fully assembled reactions at 70° C. for 5 min. followed by 45° C. for 20–40 minutes. The following enzymes were used: Taq DNA polymerase (Taq); Thermosequenase (TS); Thermosequenase II (TSII); Thermosequenase E (TSE), Tfl DNA polymerase (Tfl); Tth DNA polymerase (Tth), deltaTts DNA polymerase (deltaTts), deltaTts D DNA polymerase (dettaTTSD) (all from APBiotech); Pfu DNA polymerase (Pfu) (Stratagene Ltd); Vent™ DNA polymerase (Vent) (New England Biolabs).
(§5) The reactions were stopped by adding a 0.5 volume aliquot of 80% formamide containing 0.1% (w/v) bromophenol blue and 0.1% (w/v) cresol blue. The reaction products were separated by denaturing gel electrophoresis at a constant power of 45 W on 16% polyacrylamide gels containing 50% urea.
(§6) Gels were scanned for Cy3 fluorescence on a Molecular Dynamics Fluorimager and the data analysed using Molecular Dynamics ImageQuant 5 software.
(§7) The incorporation of a test nucleotide triphosphate results in the appearance on a polyacrylamide gel of a single band corresponding to a single base extension product. If, however, the enzyme adds additional bases then further bands would be observed that corresponded to either the full-length product or positions of other complementary bases in the template.

A further experiment relates to Vent™ DNA polymerase. The experiment is described as follows: Thermostable DNA polymerase primer extension, Vent. Particulars: DNA template, 45° C. for 20–40 minutes; for primer extended by at least one base within assay time (grade): TTP replaced entirely by test compound. As to the method: as §1, §2, §3, §4, §5, §6, §7
For another experiment, the target named is T1, MuLV RT (Moloney murine leukemia virus, UniProt P03355).
T1 construct: MuLv Reverse transcriptase or HIV reverse transcriptase; purchased APBiotech
The experiment is described as follows: Mesophilic reverse transcriptase reaction, MuLV RT. Conditions: RNA template, final enzyme concentration of 4 units/μl. As to the method: as §1, §2, §3
Extension reactions preformed with mesophilic polymerases were carried out by mixing all the components of the reaction except the enzyme and heating to 70° C. for 5 min. After the reactions had cooled to room temperature 0.175 units of the enzyme were added and the reactions heated to 37° C. for 20–40 minutes. The following enzymes were used: T7 DNA polymerase (T7); Sequenase 2™ (Seq); Klenow fragment of DNA polymerase 1 (Klen); phi-29 DNA polymerase (Phi-29); T4 DNA polymerase (T4) (all from AP Biotech) and Bst DNA polymerase (Bst) (Cambio Ltd).
Reverse transcriptase reactions were performed essentially as described above for thermophilic and mesophilic enzymes. The template for these reactions was the RNA equivalent of sequence 2. All the thermophilic enzymes were assayed in Tth reaction buffer (Cambio Ltd, Cambridge UK) containing 2.5 mM Manganese ions. The following enzymes were used: Thermosequenase (TS1); Thermosequenase II (TSII); delta Tts DNA polymerase (deltaTts); delta Tts D DNA polymerase (deltaTtsD) (all from APBiotech); Retrotherm reverse transcriptase (Retroth) (Cambio Ltd); Tth DNA polymerase (Tth) (Cambio Ltd.).
Mesophilic reverse transcriptases (AMV RT; MuLV RT; SAV RT and HIV RT all from APBiotech) were assayed in their respective buffers with a final enzyme concentration of 4 units/μl.
as §5, §6, §7

Consider “4′-C-(Aminomethyl)thymidine triphosphate [compound (9)]”, for which the “result of incorporation (termination / further chain extension)” value is reported as “T” in the experiment on Thermosequenase, “T” with Vent™ DNA polymerase and “E” on MuLV RT. The “primer extended by at least one base within assay time (grade)” value (“primer extended” below) in the experiment on Thermosequenase is listed as “+ (up to 50% of primer extended by at least one base within assay time)”; in the experiment with Vent™ DNA polymerase, “+/− (up to 25% of primer extended by at least one base within assay time)”; on MuLV RT it was “++ (up to 75% of primer extended by at least one base within assay time)”.

As for “4′-C-(Glycylaminomethyl)thymidine triphosphate [compound (6)]”, the entries for the “result of incorporation (termination / further chain extension)” value in the experiment with Thermosequenase, in the experiment with Vent™ DNA polymerase and on MuLV RT were “T”, “T” and “E”, respectively. Further, the “primer extended” value in the experiment with Thermosequenase is given as “+ (up to 50% of primer extended by at least one base within assay time)”; in the experiment with Vent™ DNA polymerase, “+/− (up to 25% of primer extended by at least one base within assay time)”; on MuLV RT it was “++ (up to 75% of primer extended by at least one base within assay time)”.

Take `Cc1cn([C@H]2C[C@H](O)[C@@](CNC(=O)C(F)(F)F)(COP(=O)(O)OP(=O)(O)OP(=O)(O)O)O2)c(=O)[nH]c1=O` [compound (8), 4′-C-(N-trifluoroacetylaminomethyl)thymidine triphosphate]: the “result of incorporation (termination / further chain extension)” value in the experiment with Thermosequenase was “T”; in the experiment on Vent™ DNA polymerase, “T”; on MuLV RT, “E”. Further, the “primer extended” value is given as “+ (up to 50% of primer extended by at least one base within assay time)” in the experiment on Thermosequenase, “+/− (up to 25% of primer extended by at least one base within assay time)” in the experiment on Vent™ DNA polymerase and “++ (up to 75% of primer extended by at least one base within assay time)” on MuLV RT.
